Test results reported in patent publication US4643991A (The University of Kentucky Research Foundation, priority 1984, dated 1987).
Where two headings read alike, the source gives them in different places.

Tests used:
[1] = target: porcine pancreatic elastase (Sus scrofa, UniProt P00772); test: Inhibition of porcine pancreatic (PP) elastase in vitro, substrate BOC-Ala-ONp, Lineweaver-Burk and Dixon plots; format: biochemical; conditions: for PPE (inhibitory activity towards PP elastase): Table 4
porcine pancreatic elastase, sequence (P00772 27-266): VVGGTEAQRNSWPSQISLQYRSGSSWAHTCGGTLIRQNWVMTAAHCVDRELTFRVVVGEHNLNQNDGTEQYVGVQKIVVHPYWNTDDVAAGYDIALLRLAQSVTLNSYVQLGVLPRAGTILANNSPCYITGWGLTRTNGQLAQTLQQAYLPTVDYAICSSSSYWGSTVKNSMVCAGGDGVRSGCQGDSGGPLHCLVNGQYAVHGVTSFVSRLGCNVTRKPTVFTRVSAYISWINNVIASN
Method: As pointed out above, the compounds of the invention are useful as elastase inhibitors. To evaluate the compounds, the inhibitory activity of the compounds were tested in vitro against the serine dependent proteolytic enzymes, trypsin, chymotrypsin and porcine pancreatic elastase. All three enzymes belong to the family of serine proteases where the catalytic residues are composed of a triad of amino acid residues, serine, histidine and aspartic acid that actually perform the peptide bond hydrolysis. In addition to the catalytic residues, the active site is composed of an extended substrate binding site that consists of a primary substrate binding site S1, and various subsites on either side of the scissile bond.
The rate and extent of inhibition could be effected by varying the structure of R and R'. As shown from kinetic parameters when R is p-nitrophenol, and R' was varied, all the peptidyl carbamates inhibited PP elastase except when R' was a tert-butyl group. […] In all cases the inhibition was specific and competitive. […] Moreover, the nature of the protecting group (P5) seemed to affect the affinity of the inhibitor for the enzyme. In all these cases the inhibition was studied at different substrate and inhibitor concentrations and the mode of inhibition determined from Lineweaver-Burk and Dixon plots. Ki values were calculated from the latter. […] The enzymatic activity of PP elastase after treatment with the inhibitor(s) was also tested using the natural substrate elastin-congored.

HL elastase = target: T1, HL elastase (Homo sapiens, UniProt P08246); test: Inhibition of human leukocyte (HL) elastase; format: biochemical; conditions: Table 4; [E] = 0.61 μM
T1 sequence (P08246 30-267): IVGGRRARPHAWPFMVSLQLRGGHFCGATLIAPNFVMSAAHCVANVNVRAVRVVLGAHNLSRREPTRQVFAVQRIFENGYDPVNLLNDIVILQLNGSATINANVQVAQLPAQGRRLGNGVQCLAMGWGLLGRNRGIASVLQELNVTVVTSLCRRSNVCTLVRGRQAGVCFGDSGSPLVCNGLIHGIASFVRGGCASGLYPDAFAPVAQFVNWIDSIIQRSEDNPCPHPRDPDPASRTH

[2] = Table 1, changes in P1', PP elastase, read-out: Ki
[3] = Table 1, changes in P1', [E] = 0.61 μM
[4] = Table 2, changes in P1, [E] = 0.61 μM
[5] = Table 3, variations in P5 and P3

C[C@H](NC(=O)OC(C)(C)C)C(=O)Oc1ccc([N+](=O)[O-])cc1 [BOC-Ala-ONp, reference compound]
Km ([1]; substrate of PP elastase assay): 4.8 mM

CC(C)N(CC(=O)[C@@H]1CCCN1C(=O)OC(C)(C)C)C(=O)Oc1ccc([N+](=O)[O-])cc1 [Compound 6, p-Nitrophenyl N-(N'-t-Boc-L-prolyl)Methyl-N-Isopropylcarbamate]
Hydrolysis by PP elastase ([1]; detected by the release of p-nitrophenol): hydrolysis of 6 by PP elastase

COC(=O)CCC(=O)N[C@@H](C)C(=O)N[C@@H](C)C(=O)N1CCC[C@H]1C(=O)CN(C(=O)Oc1ccc([N+](=O)[O-])cc1)C(C)C [Compound 10, p-Nitrophenyl N-(Methy Succinyl-L-Alanyl-L-Alanyl-L-Prolymethyl)-N-Isopropyl Carbamate]
Ki [1, 2]: 42.5 µM | Comments (inhibition of PP elastase) [1, 3]: + | Comments (inhibition of PP elastase) [1, 4]: +

COC(=O)CCC(=O)N[C@@H](C)C(=O)N[C@@H](C)C(=O)N1CCC[C@H]1C(=O)CN(C(=O)Oc1ccccc1)C(C)C [Compound 11, Phenyl N-(Methyl Succinyl-L-Alanyl-L-Alanyl-L-Prolyl Methyl)-N-Isopropyl Carbamate]
Ki [1, 2]: 32.5 µM | Comments (inhibition of PP elastase) [1, 3]: +

COC(=O)CCC(=O)N[C@@H](C)C(=O)N[C@@H](C)C(=O)N1CCC[C@H]1C(=O)CN(C(=O)Sc1nnnn1C)C(C)C [Compound 18]
Ki [1, 2]: 14.8 µM | Comments (inhibition of PP elastase) [1, 3]: +

CCCN(CC(=O)[C@@H]1CCCN1C(=O)[C@H](C)NC(=O)[C@H](C)NC(=O)CCC(=O)OC)C(=O)Oc1ccc([N+](=O)[O-])cc1 [Compound 29, P-Nitrophenyl N-(methyl succinyl-L-alanyl-L-alanyl-L-prolylmethyl) N-propylcarbamate]
Ki ([1]; Table 2, changes in P1, PP elastase, read-out: Ki): 30.5 µM | Comments (inhibition of PP elastase) [1, 4]: +

COC(=O)CCC(=O)N[C@@H](C)C(=O)N[C@@H](C)C(=O)N1CCC[C@H]1C(=O)CN(C(=O)Oc1ccc([N+](=O)[O-])cc1)C1CC1 [Compound 32, P-Nitrophenyl N-(methyl succinyl-L-alanyl-L-analyl-L-prolylmethyl)-N-cyclopropylcarbamate]
Comments (inhibition of PP elastase) [1, 4]: +

COC(=O)CCC(=O)N[C@@H](C)C(=O)N[C@@H](C)C(=O)N1CCC[C@H]1C(=O)CN(CC(C)C)C(=O)Oc1ccc([N+](=O)[O-])cc1 [Compound 47, p-Nitrophenyl N-(methylsuccinyl-L-alanyl-L-alanyl-L-prolylmethyl)-N-(2-methyl)propylcarbamate]
PPE (inhibitory activity towards PP elastase) ([1]; [E] = 0.61 μM): - (No inhibition at [I] < 150 μM using [E] = 0.61 μM.)

COC(=O)CCC(=O)N[C@@H](C)C(=O)N[C@@H](C)C(=O)N1CCC[C@H]1C(=O)CN(Cc1ccccc1)C(=O)Oc1ccc([N+](=O)[O-])cc1 [Compound 51, P-Nitrophenyl N-(methyl succinyl-L-alanyl-L-alanyl-L-prolylmethyl)-N-phenylmethylcarbamate]
PPE (inhibitory activity towards PP elastase) ([1]; [E] = 0.61 μM): - (No inhibition at [I] < 150 μM using [E] = 0.61 μM.) | HLE (inhibitory activity towards HL elastase) (HL elastase): - (No inhibition at [I] < 150 μM using [E] = 0.61 μM.)

COC(=O)CCC(=O)N[C@@H](C)C(=O)N[C@@H](C)C(=O)N1CCC[C@H]1C(=O)CN(C(=O)Oc1ccc([N+](=O)[O-])cc1)C1CCCCC1 [Compound 55, P-Nitrophenyl N-(methyl succinyl-L-alanyl-L-alanyl-L-prolylmethyl)-N-cyclohexylcarbamate]
PPE (inhibitory activity towards PP elastase) ([1]; [E] = 0.61 μM): - (No inhibition at [I] < 150 μM using [E] = 0.61 μM.) | HLE (inhibitory activity towards HL elastase) (HL elastase): - (No inhibition at [I] < 150 μM using [E] = 0.61 μM.)

COC(=O)CCC(=O)N[C@@H](C)C(=O)N[C@@H](C)C(=O)N1CCC[C@H]1C(=O)CN(C(=O)Oc1c(F)c(F)c(F)c(F)c1F)C(C)C [Compound 58, Pentafluorophenyl N-(methyl succinyl-L-analyl-L-alanyl-L-prolymethyl)-N-isopropyl-carbamate]
Ki [1, 2]: 37.5 µM | Comments (inhibition of PP elastase) [1, 3]: + | Comments (inhibition of PP elastase) [1, 5]: +

COC(=O)CCC(=O)N[C@@H](C)C(=O)N[C@@H](C)C(=O)N1CCC[C@H]1C(=O)CN(C(=O)OCC(F)(F)C(F)(F)C(F)(F)F)C(C)C [Compound 61, Heptafluorobutyl N-(methyl succinyl-L-alanyl-L-alanyl-L-prolylmethyl)-N-isopropylcarbamate]
Comments (inhibition of PP elastase) [1, 3]: +

COC(=O)CCC(=O)N[C@@H](C)C(=O)N[C@@H](C)C(=O)N1CCC[C@H]1C(=O)CN(C)C(=O)Oc1ccc([N+](=O)[O-])cc1 [Compound 68, p-Nitropheny N-(methyl succinyl-L-alanyl-L-alanyl-L-prolymethyl)-N-methyl-carbamate]
Comments (inhibition of PP elastase) [1, 4]: +

COC(=O)CCC(=O)N[C@@H](C)C(=O)N[C@@H](C)C(=O)N1CCC[C@H]1C(=O)CN(C(=O)Oc1ccc([N+](=O)[O-])cc1)C(C)(C)C [Compound 72]
Comments (inhibition of PP elastase) [1, 4]: - (NO INHIBITION OF PP ELASTASE AT [I] < 150 μM USING [E] = 0.61 μM)

CC(C)N(CC(=O)[C@@H]1CCCN1C(=O)[C@H](C)NC(=O)[C@H](C)NC(=O)C(F)(F)F)C(=O)Oc1c(F)c(F)c(F)c(F)c1F [Compound 93, Pentafluorophenyl N-(trifluoroacetyl-L-alanyl-L-alanyl-L-prolylmethyl)-N-isopropylcarbamate]
Ki [1]: 49 µM | Comments (inhibition of PP elastase) [1, 5]: +
